This is an account of results in US20050154046A1, “Methods of treating an inflammatory-related disease” (priority 2004, published 2005).

The structures appear in SMILES notation. “Also recorded” adds a separate entry of the source.

One series concerns IL-6 mRNA. Nature of the series: IL-6 transcription (real time PCR) in LPS-stimulated THP-1 cells. In kind it is cell-based, human. To be noted: 1 μM, 1 μg/ml LPS, 24 h. How it is done: Real Time PCR: The effect of Meisoindigo on the transcription of IL-6 (RNA levels) was determined by a technique of real time polymerase chain reaction (real time PCR). Total RNA was extracted using a Qiagen […] the HPRT gene was used as internal control. Human monocytic THP-1 cells at exponential growth phase were exposed to 1 μg/ml of LPS, 1 μM of Meisoindigo, or 1 μg/ml of LPS plus 1 μM of Meisoindigo for 24 hours. The cells were then harvested, washed and total RNA extracted for real time PCR assay. Total RNA (300 ng) was treated with DNase I (Promega, Madison, Wis.), and SuperScript II (Invitrogen, Carlsbad, Calif.) and oligo(dT) were used for reverse transcription according to the manufacturers' instructions. Real-time PCR reactions were performed in a 25-μL volume containing diluted cDNA, Sybr Green PCR Master Mix (Applied Biosystems), and 2.5 μM each IL-6 gene-specific primer: […] and […] An ABI SDS7700 analyzer (Applied Biosystems) was used at 50° C. for 2 minutes and 95° C. for 10 minutes, followed by 40 cycles at 95° C. for 15 seconds and 60° C. for 1 minute. Test cDNA results were normalized to HPRT internal control measured on the same plate. After cycling, the specificity of amplification was validated by the generation of a melting curve through slow denaturation of the PCR products and then by gel electrophoresis.
(In general: In qPCR the cycle at which signal appears reflects the starting amount.)

Another series concerns IL-10. Nature of the series: IL-10 secretion (ELISA) in THP-1 cells. In kind it is cell-based, human. For orientation: In an ELISA, binding on a coated surface is turned into a signal by an enzyme label.
For the next series, the system named is mouse vaginal epithelium. Nature of the series: Mitotic index in estrogen-stimulated vaginal epithelium of female mice. Format: in vivo, Kunming mice. Conditions: 200.0 mg/kg orally once a day, 3 days; percent of mitotic cells. From the text:
Materials: Meisoindigo was synthesized, purified and its structure characterized by Natrogen Therapeutics, Inc. The purity of the compound was 98.5% as described in the Examples above. A suspension of Meisoindigo was freshly prepared in 0.5% sodium methylcellulose and given orally for the animal tests described below. Other chemicals used in the following experiments were purchased from Sigma.
Pathogen-free female Kunming mice at 12 weeks of age with body weights from 22 to 25 grams were housed 5 per cage, and given, ad libitum, fresh tap water and commercial rodent pellets. Animal rooms were controlled at 24±2° C. with a relative humidity of 60±5% and a 12 hour light/dark cycle (07:00-19:00 hr).
Anti-mitotic Effects of Meisoindigo on Mouse Vaginal Epithelium: Sixty Kunming female mice were randomly divided into 5 groups, 20 in one control group, and 10 in 4 drug-tested groups. All mice were given estrogen at a dose of 0.2 mg/animal for 3 days to allow vaginal epithelial cells to develop under the stimulation of estrogen hormone. Meisoindigo was freshly prepared as a suspension in 0.5% of sodium methylcellulose. The drug was given orally at doses of 50, 100, and 200 mg/kg, respectively, once a day for 3 days. Methotrexate (MTX) was used as a positive control at a dose of 1 mg/kg, i.p. once a day for the same period of time. […] The mitotic index (percent of mitotic cells) was calculated.

In the next series the test system is IL-15. The experiment in a line: IL-15 real time PCR in LPS-stimulated THP-1 cells. Conditions: data not shown. In kind it is cell-based, human.
The next series deals with THP-1 cells. The experiment in a line: Viability of THP-1 cells by trypan blue staining. Format: cell-based, human. Conditions: up to 8 μM. How it is done: Methods: The cells were stimulated with or without […] of lipopolysaccharide (LPS, Sigma), and exposed for 24 hours to different concentrations of Meisoindigo (from 31.25 nM to 16,000 nM). Viability of cells was examined under microscope after trypan blue staining. Protein levels of IL-1β secreted into the culture media by the cells were then measured by ELISA and calculated from its standard curve using an assay Kit from R&D Systems according to instructions provided by the supplier. The method was established and validated by a good standard curve obtained.

The test system of series [1] is chronic myeloid leukemia (CML). Conditions: cited from earlier work.
Another series concerns TNF-α mRNA. Nature of the series: TNF-α transcription (real time PCR) in LPS-stimulated THP-1 cells. In kind it is cell-based, human. To be noted: 4 μM, 24 h. How it is done: The effect of Meisoindigo on the transcription of TNF-α (RNA levels) was determined by a technique of real time PCR using the same procedures described in Example 2, except the specific primers for TNF-α were used as follows: 5′-[…], and 5′[…]. Total RNA was extracted using a Qiagen Rneasy minit kit, and the HPRT gene was used as internal control.
Human monocytic THP-1 cells grown exponentially were exposed to […] of LPS, 4 μM of Meisoindigo, or 1 μg/ml of LPS plus 4 μM of Meisoindigo for 24 hours. The cells were then harvested, washed and total RNA extracted for real time PCR assay as described in Example 2.

A further series relates to IL-1β. The experiment in a line: IL-1β secretion (ELISA) in LPS-stimulated THP-1 cells. In kind it is cell-based, human.
A further series has as its system cyclin D1. The experiment in a line: Cyclin D1 levels in THP-1 cells. In kind it is cell-based, human. Conditions: 31.25 and 62.5 nM, 24 h; data not shown.
The subject of the next series is cdk4/6. Nature of the series: Cyclin dependent kinase activity in THP-1 cells (immunoprecipitation, histone H1 phosphorylation). Conditions: 31.25 and 62.5 nM, 24 h. Format: cell-based, human. How it is done: 2) Effects of Meisoindigo and/or NATURA on activity of cyclin dependent kinases (CDK) in THP-1 cells (99): THP-1 cells grown exponentially were exposed to […] of Meisoindigo or NATURA for 24 hr, respectively.
The cells were harvested, washed, and total proteins extracted as described previously (100). One hundred μg of the proteins were immuno-precipitated using antibodies against either cdk2, cdk4/6 or cyclin D1 overnight at 4° C. in the presence of a cocktail of protease inhibitors. The immuno-precipitates were washed 4 times with protein extraction buffer and once with kinase assay buffer, and reacted with […] histone H1 in the presence of [γ-^32P]-ATP (10 μCi/10 μM). The phosphorylated histone H1 (represent cdk activity) was measured by scintillation counting or by SDS-polyacrylaimde gel electrophoresis (101, 102).

Text for IL-10: Viability of cells was examined by trypan blue exception assay.
Experimental for IL-1β: It was prepared in a solution of dimethyl sulfoxide (DMSO), and stored under −20° C. for the experiments in vitro. Human monocytic cell line, THP-1 (90), was purchased from ATCC. The cells were maintained according to the supplier's instructions. Approximately 1×10^5 cells/ml were cultured at 37° C., 5% CO2 for 24 hours in Modified RPMI-1640 Medium (Invitrogen) supplemented with 10% FBS.
Statistical Analysis: All data were expressed as a mean±SD. Statistical significance of any difference between the control (LPS) and experimental groups was determined by the Student's t-test. P values between the 2 groups must be at least smaller than 0.05 to be considered statistically significant.
1) Effects of Meisoindigo and NATURA on the expression/secretion of cytokines IL-1β, IL-6, IL-10: The human monocytic THP-1 cells grown exponentially were stimulated with or without 1 μM of lipopolysaccharide (LPS, Sigma), and exposed for 24 hours to different concentrations of Meisoindigo and NATURA (from 31.25 nM and 62.5 nM), respectively. Viability of cells was examined by trypan blue exception assay.

As for `CN1C(=O)/C(=C2/C(=O)Nc3ccccc32)c2ccccc21` [Meisoindigo], the “LPS-induced IL-6 transcription” value in the series on IL-6 mRNA is recorded as “completely suppressed; also recorded: significantly inhibits”. Besides, the “increase in the IL-10 secretion” value in the series with IL-10 (0.0625 μM, THP-1 cells) is “Approximately 60%”. The “increase of IL-10 secretion at maximal stimulation” value in the series with IL-10 (62.5 nM, LPS-treated THP-1 cells, 24 h) is on record as “approximately 2 fold”. Further, in the series on IL-10 (31.25 and 62.5 nM, 24 h), the “effect on IL-10 production” value is “promoted production”. Further, the “IL-10 (Stimulation), Percentage of Maximal Response Without Cytotoxicity” value in the series on IL-10 (LPS-stimulated THP-1 cells, LPS alone −18.27) worked out at 201.97 ± 11.2%. The “elevation of LPS-suppressed IL-10” value with IL-10 (similar concentrations (as low as 31.25 nM), FIG. 6A) is on record as about 2 fold. Further, the “Mitotic Index (X ± SD)” value in the series with mouse vaginal epithelium came out at 16.06±2.66. Besides, the “inhibition on IL-15 (real time PCR)” value with IL-15 was “moderate inhibition”. Further, the cell deaths result in the series with THP-1 cells was “no cell deaths were observed”. Besides, the side effects reported result in [1] (150 mg per day, China) is reported as “very minor side effects”. In addition, in [1], the “total dosage needed to achieve the maximal remission of CML” value was 8696 mg. Also, the “effect on TNF-α mRNA levels / transcription” value in the series with TNF-α mRNA is reported as “No effect”. Further, the “reduction of the LPS mediated IL-1β secretion” value in the series on IL-1β (31.25 nM, 24 h, LPS-stimulated THP-1 cells) is “over 50%”. The “IL-1β (Inhibition), Percentage of Maximal Response Without Cytotoxicity” value in the series on IL-1β (LPS-stimulated THP-1 cells, LPS alone 100.00) is reported as 48.76 ± 3.68%. The “effect on IL-1β production” value in the series on IL-1β (as low as 31.25 nM (31.25 and 62.5 nM in FIG. 6), 24 h) was “significantly inhibit”. In the series on IL-1β (up to 8 μM), the “further reduction of IL-1β secretion on increasing the concentration” value was “did not result in further reduction”. Also, in the series on cyclin D1, the “effect on levels of cyclin D1” value is “failed to inhibit”. Besides, the “inhibition of cyclin dependent kinase 4 and 6 activity” value with cdk4/6 is reported as “failed to inhibit”.
